Results taken from ChEMBL document CHEMBL4385607, “Structure- and Ligand-Based Discovery of Chromane Arylsulfonamide Nav1.7 Inhibitors for the Treatment of Chronic Pain” (J Med Chem, 2019).

How the values were obtained:
[1] = Clearance in human hepatocytes at 1 uM measured up to 3 hrs by LC-MS/MS analysis; format: ADME, cell-based, Hepatocyte
[2] = Plasma clearance in Sprague-Dawley rat at 1 mg/kg, iv measured up to 8 hrs by LC-MS/MS analysis; format: ADME, organism-based
[3] = Lipophilicity, log D of compound at pH 7.4; format: physicochemical; conditions: buffer
[4] = Clearance in Sprague-Dawley rat hepatocytes at 1 uM measured up to 3 hrs by LC-MS/MS analysis; format: ADME, cell-based, Hepatocyte
[5] = Dissociation constant, acidic pKa of compound by spectrophotometric method; format: physicochemical
[6] = Volume of distribution at steady state in Sprague-Dawley rat at 1 mg/kg, iv measured upto 8 hrs by LC-MS/MS analysis; format: ADME, organism-based; conditions: in vivo, read-out: Vdss
[7] = Volume of distribution at steady state in FVB mouse at 1 mg/kg, iv measured upto 6 hrs by LC-MS/MS analysis; format: ADME, organism-based; conditions: in vivo, read-out: Vdss
[8] = Ratio of drug uptake in Sprague-Dawley rat liver to plasma at 5 mg/kg, po measured up to 8 hrs by LC-MS/MS analysis; format: ADME, organism-based
[9] = Blood clearance in FVB mouse at 1 mg/kg, iv measured upto 6 hrs by LC-MS/MS analysis; format: ADME, organism-based; conditions: whole blood
[10] = Half life in Beagle dog at 0.5 mg/kg, iv administered as single dose measured upto 24 hrs by LC-MS/MS analysis; format: ADME, organism-based, Canis lupus familiaris; conditions: in vivo
[11] = Oral bioavailability in Beagle dog at 0.5 mg/kg administered as single dose measured upto 24 hrs by LC-MS/MS analysis; format: ADME, organism-based, Canis lupus familiaris; conditions: in vivo
[12] = Oral bioavailability in cynomolgus monkey at 0.5 mg/kg administered as single dose measured upto 24 hrs by LC-MS/MS analysis; format: ADME, organism-based, Macaca fascicularis; conditions: in vivo
[13] = Half life in cynomolgus monkey at 0.5 mg/kg, iv administered as single dose measured upto 24 hrs by LC-MS/MS analysis; format: ADME, organism-based, Macaca fascicularis; conditions: in vivo
[14] = Volume of distribution at steady state in cynomolgus monkey at 0.5 mg/kg, iv administered as single dose measured upto 24 hrs by LC-MS/MS analysis; format: ADME, organism-based, Macaca fascicularis; conditions: in vivo, read-out: Vdss
[15] = Clearance in cynomolgus monkey at 0.5 mg/kg, iv administered as single dose measured upto 24 hrs by LC-MS/MS analysis relative to hepatic blood flow; format: ADME, organism-based, Macaca fascicularis; conditions: in vivo
[16] = Volume of distribution at steady state in Beagle dog at 0.5 mg/kg, iv administered as single dose measured upto 24 hrs by LC-MS/MS analysis; format: ADME, organism-based, Canis lupus familiaris; conditions: in vivo, read-out: Vdss
[17] = Half life in Sprague-Dawley rat at 1 mg/kg, iv measured upto 8 hrs by LC-MS/MS analysis; format: ADME, organism-based; conditions: in vivo
[18] = Oral bioavailability in Sprague-Dawley rat at 5 mg/kg measured upto 8 hrs by LC-MS/MS analysis; format: ADME, organism-based; conditions: in vivo
[19] = Clearance in Sprague-Dawley rat at 1 mg/kg, iv measured upto 8 hrs by LC-MS/MS analysis relative to hepatic blood flow; format: ADME, organism-based; conditions: in vivo
[20] = Plasma clearance in cynomolgus monkey at 0.5 mg/kg, iv administered as single dose measured upto 24 hrs by LC-MS/MS analysis; format: ADME, organism-based, Macaca fascicularis
[21] = Clearance in Beagle dog at 0.5 mg/kg, iv administered as single dose measured upto 24 hrs by LC-MS/MS analysis relative to hepatic blood flow; format: ADME, organism-based, Canis lupus familiaris; conditions: in vivo
[22] = Plasma clearance in Beagle dog at 0.5 mg/kg, iv administered as single dose measured upto 24 hrs by LC-MS/MS analysis; format: ADME, organism-based, Canis lupus familiaris
[23] = Drug level in plasma of FVB transgenic mouse model of inherited erythromelalgia xenografted with human HEK293 cells harboring I848T mutation at 15 mg/kg, po measured after 70 mins by LC-MS/MS analysis; format: ADME, organism-based
[24] = Drug level in plasma of FVB transgenic mouse model of inherited erythromelalgia xenografted with human HEK293 cells harboring I848T mutation at 50 mg/kg, po measured after 70 mins by LC-MS/MS analysis; format: ADME, organism-based
[25] = Dissociation constant, basic pKa of compound; format: physicochemical
[26] = Drug metabolism in human hepatocytes assessed as oxidation of arene ring at 1 uM measured up to 3 hrs by LC-MS/MS analysis; format: ADME, cell-based, Hepatocyte
[27] = Drug excretion in Sprague-Dawley rat bile at 1 mg/kg, iv or 5 mg/kg, po measured up to 8 hrs by LC-MS/MS analysis; format: ADME, organism-based; conditions: in vivo

| SMILES | CLhep predicted at 1 µM [1] | clearance [2] | logD [3] | CLhep predicted at 1 µM [4] | other results |
| --- | --- | --- | --- | --- | --- |
| Cn1ccc([C@H]2C[C@@H](C(F)(F)F)CCN2[C@H]2CCOc3cc(S(=O)(=O)Nc4ccncn4)c(F)cc32)n1 | 8.2 mL/min/kg | 46 mL/min/kg | 1.3 | 41 mL/min/kg |  |
| O=S(=O)(Nc1ccncn1)c1cc2c(cc1F)[C@@H](N1CC[C@H](C(F)(F)F)C[C@@H]1c1ccncn1)CCO2 | 7.8 mL/min/kg |  | 0.6 | 16 mL/min/kg |  |
| O=S(=O)(Nc1ccncn1)c1cc2c(cc1F)[C@@H](N1CC[C@H](C(F)(F)F)C[C@@H]1c1cn[nH]c1)CCO2 | 12 mL/min/kg | 161 mL/min/kg | 1.1 | 18 mL/min/kg |  |
| O=S(=O)(Nc1ccncn1)c1cc2c(cc1F)[C@@H](N1CC[C@H](C(F)(F)F)C[C@@H]1c1ccnnc1)CCO2 | < 6.2 mL/min/kg |  | 0.2 | < 10 mL/min/kg |  |
| O=S(=O)(Nc1ncns1)c1ccc2c(c1)OCC[C@@H]2N1CC[C@H](C(F)(F)F)C[C@@H]1c1ccccc1 | 11 mL/min/kg |  | 3.5 | 32 mL/min/kg |  |
| O=S(=O)(Nc1ccc(F)cn1)c1cc2c(cc1F)[C@@H](N1CC[C@H](C(F)(F)F)C[C@@H]1c1ccc(F)cc1)CCO2 | < 6.2 mL/min/kg | 4.9 mL/min/kg | 5 | < 10 mL/min/kg | pKa [5]: 8.22 |
| O=S(=O)(Nc1ccon1)c1cc2c(cc1F)[C@@H](N1CC[C@H](C(F)(F)F)C[C@@H]1c1ccc(F)cc1)CCO2 | < 6.2 mL/min/kg | 2.1 mL/min/kg | 2.8 | 13 mL/min/kg | pKa [5]: 4.49 |
| O=S(=O)(Nc1ccncn1)c1cc2c(cc1F)[C@@H](N1CC[C@H](C(F)(F)F)C[C@@H]1c1cnccn1)CCO2 | 9 mL/min/kg | 42 mL/min/kg | 0.5 | 25 mL/min/kg |  |
| O=S(=O)(Nc1ccncn1)c1cc2c(cc1F)[C@@H](N1CC[C@H](C(F)(F)F)C[C@@H]1c1cc[nH]n1)CCO2 | 9.1 mL/min/kg | 93 mL/min/kg | 1.3 | 15 mL/min/kg |  |
| O=S(=O)(Nc1ccncn1)c1cc2c(cc1F)[C@@H](N1CC[C@H](C(F)(F)F)C[C@@H]1c1ccc(F)cc1)CCO2 | 7.7 mL/min/kg | 0.78 to 0.8 mL/min/kg | 3.2 | 14 mL/min/kg | Vd [6]: 0.7 L/kg; Vd [7]: 0.9 L/kg; pKa [5]: 5.81; Kp at 8 h [8]: 4; clearance [9]: 8.3 mL/min/kg |
| Cn1nccc1[C@H]1C[C@@H](C(F)(F)F)CCN1[C@H]1CCOc2cc(S(=O)(=O)Nc3ccncn3)c(F)cc21 | 14 mL/min/kg | 42 mL/min/kg | 0.9 | 14 mL/min/kg |  |
| O=S(=O)(Nc1ccncn1)c1cc2c(cc1F)[C@@H](N1CC[C@H](C(F)(F)F)C[C@@H]1c1cccnc1)CCO2 | 15 mL/min/kg | 101 mL/min/kg | 1.3 | 26 mL/min/kg |  |
| O=S(=O)(Nc1ncns1)c1cc(F)c(CN2CC[C@@H](C(F)(F)F)C[C@H]2c2ccccc2)cc1F |  |  | 2.7 |  |  |
| O=S(=O)(Nc1ncns1)c1cc(F)c(CN2CCCC[C@@H]2c2ccccc2)cc1F |  |  | 1.9 |  |  |
| O=S(=O)(Nc1cccnn1)c1cc2c(cc1F)[C@@H](N1CC[C@H](C(F)(F)F)C[C@@H]1c1ccc(F)cc1)CCO2 | < 6.2 mL/min/kg | 0.71 mL/min/kg | 4.3 | < 10 mL/min/kg | pKa [5]: 6.59 |
| O=S(=O)(Nc1ccncn1)c1cc2c(cc1F)[C@@H](N1CC[C@H](C(F)(F)F)C[C@@H]1c1ccccn1)CCO2 | < 6.2 mL/min/kg | 14 to 15 mL/min/kg | 1.4 | 17 mL/min/kg | half-life [10]: 4.3 h; bioavailability [11]: 32%; Vd [6]: 1.2 L/kg; bioavailability [12]: 18%; half-life [13]: 2.1 h; Vd [14]: 0.66 L/kg; clearance [15]: 8 to 44%; Vd [16]: 0.74 L/kg; half-life [17]: 1.7 h; bioavailability [18]: 73%; clearance [19]: 8 to 44%; clearance [20]: 19 mL/min/kg; clearance [21]: 8 to 44%; clearance [22]: 2.4 mL/min/kg |
| O=S(=O)(Nc1ncns1)c1cc(F)c(CN2CC[C@H](C(F)(F)F)C[C@@H]2c2ccccc2)cc1F |  |  | 2.7 |  | concentration at 70 min [23]: 33 µM; concentration at 70 min [24]: 58 µM; pKa [25]: 5.5 |
| O=S(=O)(Nc1ncns1)c1ccc2c(c1)OCC[C@@H]2N1CC[C@H](C(F)(F)F)C[C@@H]1c1ccc(F)cc1 | 11 mL/min/kg | 62 mL/min/kg | 3.2 | 17 mL/min/kg | Vd [6]: 23 L/kg; Vd [7]: 4.8 L/kg; pKa [5]: 3.26; Kp at 8 h [8]: 202; Drug metabolism [26]: Metabolite_Notdetected; Drug excretion [27]: Active; clearance [9]: 46 mL/min/kg |
| O=S(=O)(Nc1ccncn1)c1cc2c(cc1F)[C@@H](N1CC[C@H](C(F)(F)F)C[C@@H]1c1ccncc1)CCO2 | 13 mL/min/kg | 82 mL/min/kg | 1.2 | 13 mL/min/kg |  |
| O=S(=O)(Nc1ccncn1)c1cc2c(cc1F)[C@@H](N1CC[C@H](C(F)(F)F)C[C@@H]1c1cnco1)CCO2 | 12 mL/min/kg | 62 mL/min/kg | 0.9 | 12 mL/min/kg |  |
| O=S(=O)(Nc1ncns1)c1cc(F)c(CN2CCCC[C@H]2c2ccccc2)cc1F |  |  | 1.9 |  |  |
